The record followed here is PubChem BioAssay (NCI).

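48-hour exposure; five concentrations; linearly interpolated endpoints. The concentration for full growth arrest is given as TGI.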

Among the test systems are KM12 colon; HT29 colon; CCRF-CEM leukemia; MDA-MB-435; UACC-62 melanoma; COLO 205 colon; SK-MEL-5 melanoma; HS 578T breast; 786-0 renal; A498 renal; SK-MEL-2 melanoma; NCI/ADR-RES ovarian.
Holding throughout (assay): inhibition of tumour cell growth, NCI panel, 48 h

With `COc1ccc(OC)c(C2CCc3cnc4nc(N)nc(N)c4c3C2)c1` (centres undefined), the TGI in the test on KM12 colon, in the test with HT29 colon, with CCRF-CEM leukemia, in the test on MDA-MB-435, in the test on UACC-62 melanoma and with COLO 205 colon was above 100 µM in each case. Further, the TGI in the test with SK-MEL-5 melanoma, with HS 578T breast, in the test with 786-0 renal, with A498 renal, with SK-MEL-2 melanoma and with NCI/ADR-RES ovarian was above 100 µM in each case.
Turning to `O=S(=O)(Nc1ccccc1S(=O)(=O)c1ccccc1)c1ccccc1`, the TGI with KM12 colon, in the test with HT29 colon, in the test on CCRF-CEM leukemia, in the test on MDA-MB-435, with UACC-62 melanoma and in the test with COLO 205 colon was above 100 µM each time. Besides, the TGI in the test with SK-MEL-5 melanoma, in the test on HS 578T breast, with 786-0 renal, in the test with A498 renal, in the test with SK-MEL-2 melanoma and in the test with NCI/ADR-RES ovarian was above 100 µM in each case.
For the molecule `CC(=O)OC1CC(OC2C(O)CC(OC3C(O)CC(OC4CCC5(C)C(CCC6C5CC(O)C5(C)C(C7=CC(=O)OC7)CCC65O)C4)OC3C)OC2C)OC(C)C1O` (centres undefined) (tested in a mixture with another compound), the TGI in the test with KM12 colon was 0.116 µM; in the test with HT29 colon, 0.0954 µM; in the test with CCRF-CEM leukemia it was above 100 µM; in the test with MDA-MB-435, 0.357 µM; in the test with UACC-62 melanoma, 0.128 µM; in the test on COLO 205 colon, 0.168 µM. The TGI amounted to 0.0838 µM in the test on SK-MEL-5 melanoma; 0.435 µM in the test on HS 578T breast; 0.13 µM in the test on 786-0 renal; 0.307 µM in the test with A498 renal; 0.207 µM in the test with SK-MEL-2 melanoma; 0.0732 µM in the test with NCI/ADR-RES ovarian.
As for `Cc1cc(S(=O)(=O)Nc2nc(N)n(C)n2)c(S)cc1Cl`, the TGI in the test on KM12 colon, in the test with HT29 colon, with CCRF-CEM leukemia, with MDA-MB-435, in the test with UACC-62 melanoma and with COLO 205 colon was above 10 µM throughout. For the same molecule, the TGI in the test on SK-MEL-5 melanoma, in the test with HS 578T breast, in the test with 786-0 renal, with A498 renal, in the test with SK-MEL-2 melanoma and in the test on NCI/ADR-RES ovarian was above 10 µM in each case.
Regarding `C=CCC1(O)c2cccc(O)c2C(=O)c2c(O)cccc21`, the TGI in the test on KM12 colon is above 100 µM; in the test with HT29 colon it was 67.9 µM; in the test on MDA-MB-435, above 100 µM; in the test on SK-MEL-5 melanoma it was 85.9 µM; in the test with HS 578T breast, 63.1 µM; in the test on 786-0 renal, above 100 µM. Moreover, the TGI worked out at 79.4 µM in the test with A498 renal, 51.2 µM in the test on SK-MEL-2 melanoma and 43 µM with NCI/ADR-RES ovarian.
Consider `Cc1cc2c3c(ccc4ncc(c43)CN2c2ccc(NS(C)(=O)=O)cc2)[nH]1`, for which the TGI in the test on KM12 colon, with HT29 colon, in the test with CCRF-CEM leukemia, in the test with MDA-MB-435, with UACC-62 melanoma and with COLO 205 colon was above 100 µM each time. In addition, the TGI with SK-MEL-5 melanoma was above 100 µM; with HS 578T breast, above 100 µM; in the test with 786-0 renal, 23.5 µM; in the test with A498 renal, above 100 µM; in the test on SK-MEL-2 melanoma, above 100 µM; in the test with NCI/ADR-RES ovarian it was above 100 µM.
Take `CC(C)(C)OC(=O)C(C1NC(C(=O)O)C(C)(C)S1)N1C(=O)c2ccccc2C1=O` (centres undefined): the TGI with KM12 colon, in the test with HT29 colon, in the test with CCRF-CEM leukemia, with MDA-MB-435, in the test with UACC-62 melanoma and in the test on COLO 205 colon was above 100 µM throughout. Further, the TGI in the test on SK-MEL-5 melanoma, with HS 578T breast, in the test with 786-0 renal, in the test on A498 renal, in the test with SK-MEL-2 melanoma and in the test on NCI/ADR-RES ovarian was above 100 µM in each case.
As to `Cc1c(-c2ccccc2)n(C)c2cn[nH]c(=O)c12`, the TGI is above 100 µM in the test on KM12 colon; 81.3 µM with HT29 colon; above 100 µM in the test with CCRF-CEM leukemia; above 100 µM with MDA-MB-435; above 100 µM in the test on UACC-62 melanoma; 32 µM in the test with COLO 205 colon. Moreover, the TGI with SK-MEL-5 melanoma was 31.8 µM; in the test on HS 578T breast, above 100 µM; with 786-0 renal, 62.5 µM; in the test on A498 renal, above 100 µM; with SK-MEL-2 melanoma, 48 µM; in the test with NCI/ADR-RES ovarian, 69.4 µM.
Turning to `Cn1ncc2c(NCCc3ccccc3)nc(Cl)nc21`, the TGI with KM12 colon stood at 85.5 µM; in the test on HT29 colon, 31 µM; in the test on MDA-MB-435, 44.9 µM; with UACC-62 melanoma, 45.1 µM; in the test with COLO 205 colon, 34.2 µM; in the test with SK-MEL-5 melanoma it was 38.6 µM. The TGI was above 100 µM with HS 578T breast; 64.2 µM in the test on 786-0 renal; 45.5 µM in the test on A498 renal; 36.7 µM in the test with SK-MEL-2 melanoma; 59.9 µM in the test on NCI/ADR-RES ovarian.
For `Cn1cc(-c2ccc(CCOC3CCCCO3)cc2)c2c(C#N)cccc21` (centres undefined), the TGI was above 100 µM in the test with KM12 colon; 45.3 µM in the test on HT29 colon; above 100 µM with CCRF-CEM leukemia; above 100 µM with MDA-MB-435; above 100 µM in the test with UACC-62 melanoma; 67.5 µM in the test with COLO 205 colon. Further, the TGI in the test on SK-MEL-5 melanoma, in the test on HS 578T breast, in the test on 786-0 renal, in the test with A498 renal, in the test on SK-MEL-2 melanoma and in the test with NCI/ADR-RES ovarian was above 100 µM throughout.
Take `CCOC(=O)c1sc2nc(SC)nc(Nc3ccc(OC)c(OC)c3)c2c1N`: the TGI in the test on KM12 colon, in the test with HT29 colon, with CCRF-CEM leukemia, in the test on MDA-MB-435, with UACC-62 melanoma and with COLO 205 colon was above 100 µM each time. In addition, the TGI in the test with SK-MEL-5 melanoma is above 100 µM; in the test with HS 578T breast, 64.3 µM; with 786-0 renal, above 100 µM; in the test on A498 renal, 37.3 µM; with SK-MEL-2 melanoma it was above 100 µM; in the test with NCI/ADR-RES ovarian, above 100 µM.
For the molecule `CC(C)(C)OC(=O)C1/C(=C/CO)CN1C(=O)OC(C)(C)C` (centres undefined), the TGI in the test on HT29 colon, with CCRF-CEM leukemia, in the test with MDA-MB-435, in the test on UACC-62 melanoma, with COLO 205 colon and in the test on SK-MEL-5 melanoma was above 100 µM each time. Further, the TGI with HS 578T breast, in the test with 786-0 renal, in the test on A498 renal, in the test on SK-MEL-2 melanoma and in the test on NCI/ADR-RES ovarian was above 100 µM throughout.
